Experimental data taken from patent US4767749A, “Ester of (triarylphosphoranylidene)carbamic acid having diuretic and ability to lower plasma renin properties” (American Cyanamid Company, priority 1986, dated 1988).

Tested on: spontaneously hypertensive rats (SHR)
Experiment: Diuretic activity in spontaneously hypertensive rats
Assay type: in vivo, male spontaneously hypertensive rats (Okamoto strain)
Conditions: 100 mg/kg by gavage with 0.9% sodium chloride loading 25 ml/kg; 0-5 hour urine
Method: The diuretic activity of the compounds of this invention was also determined according to the method of Chan, P. S. and Poorvin, D., Sequential method for combined screening antihypertensive and diuretic agents in the same spontaneously hypertensive rat. Clinical and Experimental Hypertension, 1(6), 817-830 (1979).
Male spontaneously hypertensive rats (SHR) of Okamoto strain, 16 weeks old, Taconic Farms Inc. were used in the test. These rats were kept on Purina laboratory chow and tap water ad libitum for 8 weeks before use. One male adult rat (about 300 g) was dosed by gavage with a test compound at 100 mg/kg together with 0.9% sodium chloride loading at 25 ml/kg at zero hour. The test compound was suspended in 3% preboiled starch at 50 mg/ml. The rat was put in a metabolism cage. The 0-5 hour urine was collected and urinary sodium and potassium were determined using a Beckman Astra 4. The effects of representative compounds of the invention according to this test appear in Table III expressed in milliequivalents (mEQ) of urinary sodium and potassium excreted.

In the case of `CCc1ccccc1P(=NC(=O)OC)(c1ccccc1)c1ccccc1` [[(2-ethylphenyl)diphenylphosphoranylidene]carbamic acid, methyl ester], the “Potassium (urinary excretion)” value is reported as 0.58 mEQ/5 Hours, the “Sodium (urinary excretion)” value is reported as 1.36 mEQ/5 Hours and the “Volume (urine)” value is reported as 14.3 mL.

For `O=C(N=P(c1ccccc1)(c1ccccc1)c1ccccc1)OC1CCCC1` [(triphenylphosphoranylidene)carbamic acid, cyclopentyl ester], the “Potassium (urinary excretion)” value was 0.80 mEQ/5 Hours, the “Sodium (urinary excretion)” value was 1.48 mEQ/5 Hours and the “Volume (urine)” value was 14.0 mL.

In the case of `O=C(N=P(c1ccccc1)(c1ccccc1)c1ccccc1)OC1CCc2ccccc21` (stereo not drawn) [(Triphenylphosphoranylidene)carbamic acid, 2,3-dihydro-1 --H--inden-1-yl ester], the “Potassium (urinary excretion)” value is reported as 0.87 mEQ/5 Hours, the “Sodium (urinary excretion)” value is reported as 1.41 mEQ/5 Hours and the “Volume (urine)” value is reported as 13.0 mL.

For `O=C(N=P(c1ccccc1)(c1ccccc1)c1ccccc1C(F)(F)F)OC1CCOC1` (stereo not drawn) [[diphenyl[2-(trifluoromethyl)phenyl]phosphoranylidene]carbamic acid, tetrahydro-3-furanyl ester], the “Potassium (urinary excretion)” value was 0.63 mEQ/5 Hours, the “Sodium (urinary excretion)” value was 1.64 mEQ/5 Hours and the “Volume (urine)” value was 16.3 mL.

`O=C(N=P(c1ccccc1)(c1ccccc1)c1ccccc1)OC(C1CC1)C1CC1` [(triphenylphosphoranylidene)carbamic acid, dicyclopropylmethyl ester] was tested, and the “Potassium (urinary excretion)” value was 1.07 mEQ/5 Hours, the “Sodium (urinary excretion)” value was 1.58 mEQ/5 Hours and the “Volume (urine)” value was 14.3 mL.

`CO[C@@H]1CCC[C@H]1OC(=O)N=P(c1ccccc1)(c1ccccc1)c1ccccc1` (relative stereo) [(triphenylphosphoranylidene)carbamic acid, trans-2-methoxycyclopentyl ester] was tested, and the “Potassium (urinary excretion)” value was 0.72 mEQ/5 Hours, the “Sodium (urinary excretion)” value was 1.83 mEQ/5 Hours and the “Volume (urine)” value was 17.0 mL.

`CC1CC1COC(=O)N=P(c1ccccc1)(c1ccccc1)c1ccccc1` (stereo not drawn) [(triphenylphosphoranylidene)carbamic acid, (2-methylcyclopropyl)methyl ester] was tested, and the “Potassium (urinary excretion)” value was 0.47 mEQ/5 Hours, the “Sodium (urinary excretion)” value was 1.28 mEQ/5 Hours and the “Volume (urine)” value was 11.3 mL.

In the case of `Cc1ccccc1P(=NC(=O)OC1CCCC1)(c1ccccc1)c1ccccc1` [[(2-methylphenyl)diphenylphosphoranylidene]carbamic acid, cyclopentyl ester], the “Potassium (urinary excretion)” value is reported as 0.67 mEQ/5 Hours, the “Sodium (urinary excretion)” value is reported as 1.18 mEQ/5 Hours and the “Volume (urine)” value is reported as 10.8 mL.

With `CCCC1(OC(=O)N=P(c2ccccc2)(c2ccccc2)c2ccccc2)CCCC1` [(triphenylphosphoranylidene)carbamic acid, 1-propylcyclopentyl ester] the “Potassium (urinary excretion)” value was 0.63 mEQ/5 Hours, the “Sodium (urinary excretion)” value was 1.14 mEQ/5 Hours and the “Volume (urine)” value was 10.3 mL.

For `CCC1(OC(=O)N=P(c2ccccc2)(c2ccccc2)c2ccccc2)CCCC1` [(triphenylphosphoranylidene)carbamic acid, 1-ethylcyclopentyl ester], the “Potassium (urinary excretion)” value was 1.01 mEQ/5 Hours, the “Sodium (urinary excretion)” value was 1.34 mEQ/5 Hours and the “Volume (urine)” value was 12.5 mL.

In the case of `CCOC(=O)N=P(c1ccccc1)(c1ccccc1)c1cccc(Br)c1` [[(3-Bromophenyl)diphenylphosphoranylidene]carbamic acid, ethyl ester], the “Potassium (urinary excretion)” value is reported as 0.78 mEQ/5 Hours, the “Sodium (urinary excretion)” value is reported as 1.16 mEQ/5 Hours and the “Volume (urine)” value is reported as 12.4 mL.

In the case of `CC#CCOC(=O)N=P(c1ccccc1)(c1ccccc1)c1ccccc1` [(triphenylphosphoranylidene)carbamic acid, 2-butynyl ester], the “Potassium (urinary excretion)” value is reported as 0.57 mEQ/5 Hours, the “Sodium (urinary excretion)” value is reported as 1.15 mEQ/5 Hours and the “Volume (urine)” value is reported as 10.0 mL.

`CCOC(=O)N=P(c1ccccc1)(c1cccc(Cl)c1)c1cccc(Cl)c1` [[[bis(3-chlorophenyl)phenyl]phosphoranylidene]carbamic acid, ethyl ester] was tested, and the “Potassium (urinary excretion)” value was 0.89 mEQ/5 Hours, the “Sodium (urinary excretion)” value was 1.84 mEQ/5 Hours and the “Volume (urine)” value was 18.3 mL.

With `CC(OC(=O)N=P(c1ccccc1)(c1ccccc1)c1ccccc1)C1CC1` (stereo not drawn) [(triphenylphosphoranylidene)carbamic acid, 1-cyclopropylethyl ester] the “Potassium (urinary excretion)” value was 0.65 mEQ/5 Hours, the “Sodium (urinary excretion)” value was 1.19 mEQ/5 Hours and the “Volume (urine)” value was 12.0 mL.

With `CCOC(=O)N=P(c1ccccc1)(c1ccccc1)c1ccccc1OC` [[(2-Methoxyphenyl)diphenylphosphoranylidene]carbamic acid, ethyl ester] the “Potassium (urinary excretion)” value was 0.97 mEQ/5 Hours, the “Sodium (urinary excretion)” value was 1.31 mEQ/5 Hours and the “Volume (urine)” value was 11.3 mL.

In the case of `CCOC(=O)N=P(c1ccccc1)(c1ccccc1)c1cccc(C(F)(F)F)c1` [[(3-trifluorophenyl)diphenylphosphoranylidene]carbamic acid, ethyl ester], the “Potassium (urinary excretion)” value is reported as 0.67 mEQ/5 Hours, the “Sodium (urinary excretion)” value is reported as 1.38 mEQ/5 Hours and the “Volume (urine)” value is reported as 13.5 mL.

With `CCOC(=O)N=P(c1ccccc1)(c1ccccc1)c1cccc(Cl)c1Cl` [[(2,3-dichlorophenyl)diphenylphosphoranylidene]carbamic acid ethyl ester] the “Potassium (urinary excretion)” value was 0.86 mEQ/5 Hours, the “Sodium (urinary excretion)” value was 1.83 mEQ/5 Hours and the “Volume (urine)” value was 14.3 mL.
